{"source": "patent US11155559B2", "about": "“Sulfonyl-substituted isoquinolines as inhibitors of RHO kinase and hERG potassium channel activity” (CHINA RESOURCES PHARMACEUTICAL HOLDINGS COMPANY LIMITED, priority 2017, dated 2021)", "key": {"[1]": {"assay": "Evaluation of pharmacokinetics in rats", "format": "in vivo", "conditions": "rat, plasma, male SD rats, single administration, groups 2 mg/kg intravenous and 10 mg/kg oral gavage, route for this parameter not stated", "procedure": "Evaluation of Pharmacokinetics in Rats Male SD rats were used as test animals, after a single administration, the blood concentrations of the compounds were measured and the pharmacokinetic behavior was evaluated. Six healthy adult male SD rats (7-10 weeks of age, purchased from Shanghai Slack Experimental Animal Co., Ltd.) were randomly divided into two groups of three animals each, and one group was administered the test compound intravenously at 2 mg/kg, the other group was administered orally by gavage the test compound at 10 mg/kg. The vehicle in the intravenous administration group and the gastric administration group was both 10% DMSO+18% HP-β-CD+72% physiological saline. Blood samples were collected from the animals in the intravenous group at 0.0833, 0.25, 0.5, 1, 2, 4, 8, and 24 hours after the administration, and blood samples were collected from the animals in the gavage group at 0.25, 0.5, 1, 2, 4, 6, 8 and 24 hours after the administration. LCMS-MS method was used to determine the plasma drug concentration. WinNonlin™ version 6.3 (Pharsight Mountain View, Calif.) pharmacokinetic software was used to calculate the relevant pharmacokinetic parameters by non-compartment model logarithmic trapezoid method."}, "ROCK protein kinase": {"target": "ROCK protein kinase", "assay": "Evaluation of ROCK protein kinase inhibitory activity in vitro (33P-ATP filter-binding)", "format": "biochemical", "conditions": "1 nM ROCK, 20 μM Long S6 Kinase substrate peptide, room temperature, two hours", "procedure": "Evaluation of ROCK Protein Kinase Inhibitory Activity In Vitro\nExperimental object: detecting the inhibitory IC50 value of ROCK protein kinase of the compounds.\nAssay buffer solution: 20 mM Hepes (pH 7.5), 10 mM MgCl2, 1 mM EGTA, 0.02% Brij35, 0.02 mg/ml BSA, 0.1 mM Na3VO4, 2 mM DTT, 1% DMSO\nROCK protein kinase substrate Long S6 Kinase substrate peptide was added to the freshly prepared buffer solution at a concentration of 20 μM. Then 1 nM ROCK protein kinase was added and stirred evenly. […] After pre-incubating at room temperature for 20 minutes, ^33P-ATP (radiation intensity 10 μCi/μL) was added to initiate the reaction and the reaction was carried out at room temperature for two hours. […] The Filter-Binding method was used to detect radiation intensity.\nThe protein kinase inhibitory activity of the compound was expressed as the residual protein kinase activity of a relatively blank substrate (DMSO alone). IC50 values and curves were calculated using Prism software package (GraphPad Software, san Diego Calif., USA)."}, "[2]": {"tested_on": "bleomycin-induced rat pulmonary fibrosis", "assay": "Pharmacodynamics in rats: bleomycin-induced unilateral (left lung) pulmonary fibrosis model", "format": "in vivo, SD rats", "conditions": "for Percentage of pulmonary fibrosis score vs. model group (FIG. 2): Ashcraft score, boundary at 3 (3 or below vs. 4 or above)", "procedure": "Animals in each group started to be administered orally by gavage on the 8th day of modeling for a total of 14 days. All animals were euthanized the next day after the last administration, and the left lung was taken, and the same amount of formalin solution was infused into the lungs, the lung fibrosis score was analyzed by weighing and lung pathology.\nMasson Trichrome staining was used for pathological evaluation of pulmonary fibrosis lesion area, pulmonary fibrosis pathology score, and fibrosis grade parameters for left lung pulmonary fibrosis lesions. […] (FIG. 2)."}, "hERG potassium channel": {"target": "hERG potassium channel (Homo sapiens, UniProt Q12809)", "sequence (Q12809 whole entry)": "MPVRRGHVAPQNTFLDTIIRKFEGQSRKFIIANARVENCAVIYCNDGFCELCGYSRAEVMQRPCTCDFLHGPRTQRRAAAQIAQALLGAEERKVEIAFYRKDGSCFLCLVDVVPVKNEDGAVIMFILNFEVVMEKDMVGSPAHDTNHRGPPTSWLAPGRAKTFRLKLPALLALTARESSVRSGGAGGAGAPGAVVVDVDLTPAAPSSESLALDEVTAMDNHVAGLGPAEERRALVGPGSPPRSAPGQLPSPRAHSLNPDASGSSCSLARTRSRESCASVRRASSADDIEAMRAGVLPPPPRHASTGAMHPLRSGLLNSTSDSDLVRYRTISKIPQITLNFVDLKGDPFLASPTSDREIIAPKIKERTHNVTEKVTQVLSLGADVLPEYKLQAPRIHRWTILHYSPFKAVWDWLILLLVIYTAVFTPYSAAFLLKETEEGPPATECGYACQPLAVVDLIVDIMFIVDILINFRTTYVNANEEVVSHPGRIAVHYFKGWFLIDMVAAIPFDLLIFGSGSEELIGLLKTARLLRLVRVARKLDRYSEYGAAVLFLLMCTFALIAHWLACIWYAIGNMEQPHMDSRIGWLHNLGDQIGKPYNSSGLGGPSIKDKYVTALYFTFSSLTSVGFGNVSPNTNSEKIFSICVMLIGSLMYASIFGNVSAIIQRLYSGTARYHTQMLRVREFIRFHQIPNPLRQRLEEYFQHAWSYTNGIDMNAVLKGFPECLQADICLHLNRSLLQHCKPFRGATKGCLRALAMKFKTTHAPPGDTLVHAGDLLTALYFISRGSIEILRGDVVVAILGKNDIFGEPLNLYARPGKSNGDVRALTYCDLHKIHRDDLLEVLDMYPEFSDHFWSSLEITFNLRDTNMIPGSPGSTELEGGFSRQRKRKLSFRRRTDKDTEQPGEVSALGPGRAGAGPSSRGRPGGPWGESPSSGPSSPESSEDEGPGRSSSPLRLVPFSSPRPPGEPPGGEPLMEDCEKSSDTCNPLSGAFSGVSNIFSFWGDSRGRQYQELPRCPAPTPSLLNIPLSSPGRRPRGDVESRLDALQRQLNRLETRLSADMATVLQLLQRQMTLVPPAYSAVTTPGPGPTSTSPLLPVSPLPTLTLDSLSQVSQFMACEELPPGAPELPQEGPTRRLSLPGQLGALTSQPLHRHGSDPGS", "assay": "hERG experiment (QPatch HTX whole-cell, CHO-hERG cells)", "format": "cell-based", "conditions": "room temperature, tested at 0.24 to 30.00 μM, read-out: hERG inhibitory activity (IC50)", "procedure": "The cells stably expressing hERG potassium channel used in the experiment were derived from CHO-hERE of Aviva Biosciences, CHO-hERG was cultured under 5% CO2 at 37° C. hERGQPatch^HTX experiments were performed at room temperature. QPatch AssaySoftware 5.2 (Sophion Bioscience) software was used to establish whole-cell protocols, voltage stimulation protocols and compound detection protocols. First, the voltage stimulation was repeated for 30 times, this section was used as the baseline area for subsequent analysis, then 5 μL extracellular fluid was added and repeated three times. The effect concentrations of each compound were added one after the other, repeating three times by the addition of 5 μL volume. The cells were incubated at each test concentration for at least 5 mins. During the entire recording process, each indicator must meet the data analysis acceptance criteria, if the criterion is not met, the cell will not be counted in the analysis range, and the compound will be tested again, the above recording process is automatically operated by Qpatch analysis software. […] In each complete current record, based on the percentage of peak current in the negative control group, the percentage inhibition of the effect concentration of each compound can be calculated. […]"}, "[3]": {"conditions": "positive drugs: nintedanib 100 and 30 mg/kg/d-qd, pirfenidone 50 and 15 mg/kg/d-bid, oral gavage, 14 days, p<0.05"}}}
{"compound": "CC1C2NCCC2CN1S(=O)(=O)c1cccc2cncc(F)c12", "note": "(stereo not shown) [embodiment 6]", "values": [{"measurement": "clearance", "setting": "[1]; read-out: Clearance rate (Cl)", "result": 43.8, "unit": "mL/min/kg"}, {"measurement": "half-life", "setting": "[1]; read-out: Half-life period (T1/2) (converted)", "result": 1.12, "unit": "h"}, {"measurement": "IC50", "setting": "ROCK protein kinase", "result": 12, "unit": "nM"}, {"measurement": "Percentage of pulmonary fibrosis score vs. model group (FIG. 2)", "setting": "[2]; oral gavage, 14 days", "result": "significant statistical difference compared with the model group"}, {"measurement": "Lowest dose effective in inhibiting pulmonary fibrosis", "setting": "[2]; administered continuously for two weeks", "result": "≤ 1", "unit": "mg/kg BID"}, {"measurement": "Pulmonary fibrosis-improving effect compared with reference drugs", "setting": "[2]; compared with nintedanib, pirfenidone and fasudil", "result": "comparable to that of nintedanib, pirfenidone, and fasudil at lower doses"}, {"measurement": "Pulmonary fibrosis Ashcraft score vs. model group (FIG. 1)", "setting": "[2]; oral, once a day at 3 mg/kg, 14 days, consistent with the same dose twice daily", "result": "significant effect on inhibiting pulmonary fibrosis"}, {"measurement": "Pulmonary fibrosis Ashcraft score vs. model group (FIG. 1)", "setting": "[2]; oral, twice a day at three doses (1, 3, 10 mg/kg/d-bid), 14 consecutive days, p<0.001", "result": "significant inhibition of pulmonary fibrosis"}, {"measurement": "IC50", "setting": "hERG potassium channel", "result": "> 30000", "unit": "nM"}]}
{"compound": "Cc1cncc2cccc(S(=O)(=O)N3C[C@@H]4CCN[C@@H]4C3)c12", "note": "[Embodiment 38 (WO2015/165341), reference compound]", "values": [{"measurement": "IC50", "setting": "hERG potassium channel", "result": 4600, "unit": "nM"}]}
{"compound": "CC1C2NCCC2CN1S(=O)(=O)c1cccc2c(O)ncc(F)c12", "note": "(stereo not shown) [embodiment 10]", "values": [{"measurement": "IC50", "setting": "ROCK protein kinase", "result": 783, "unit": "nM"}]}
{"compound": "O=S(=O)(c1cccc2cncc(F)c12)N1CC2CCNC2C12CC2", "note": "(stereo not shown) [embodiment 3]", "values": [{"measurement": "IC50", "setting": "ROCK protein kinase", "result": 93, "unit": "nM"}]}
{"compound": "CC1C2NCCC2CN1S(=O)(=O)c1cccc2cnccc12", "note": "(stereo not shown) [embodiment 7]", "values": [{"measurement": "IC50", "setting": "ROCK protein kinase", "result": 28, "unit": "nM"}]}
{"compound": "CC1C2NCCC2CN1S(=O)(=O)c1cccc2cncc(F)c12", "note": "(stereo not shown) [embodiment 6-1]", "values": [{"measurement": "IC50", "setting": "ROCK protein kinase", "result": 65, "unit": "nM"}]}
{"compound": "O=S(=O)(c1cccc2cnccc12)N1CCCNCC1", "note": "[Fasudil, reference compound]", "values": [{"measurement": "Pulmonary fibrosis Ashcraft score vs. model group (FIG. 1)", "setting": "[2]; oral, once a day at 25 mg/kg, 14 consecutive days, p<0.001", "result": "achieved the same effect as the positive drug in inhibiting pulmonary fibrosis"}]}
{"compound": "CC1C2NCCC2CN1S(=O)(=O)c1cccc2cncc(F)c12", "note": "(stereo not shown) [embodiment 6-2]", "values": [{"measurement": "IC50", "setting": "ROCK protein kinase", "result": 8, "unit": "nM"}]}
{"compound": "COC(=O)c1ccc2c(c1)NC(=O)/C2=C(\\Nc1ccc(N(C)C(=O)CN2CCN(C)CC2)cc1)c1ccccc1", "note": "[nintedanib, reference compound]", "values": [{"measurement": "Percentage of pulmonary fibrosis score vs. model group (FIG. 2)", "setting": "[2]; oral gavage, 14 days", "result": "significant differences compared with the model group"}, {"measurement": "Pulmonary fibrosis Ashcraft score vs. model group (FIG. 1)", "setting": "[2]; [3]", "result": "significantly improved the degree of pulmonary fibrosis"}]}
{"compound": "CC1C2NCCC2CN1S(=O)(=O)c1cccc2cnccc12", "note": "(stereo not shown) [embodiment 7-1]", "values": [{"measurement": "IC50", "setting": "ROCK protein kinase", "result": 63, "unit": "nM"}]}
{"compound": "Cc1ccc(=O)n(-c2ccccc2)c1", "note": "[pirfenidone, reference compound]", "values": [{"measurement": "Percentage of pulmonary fibrosis score vs. model group (FIG. 2)", "setting": "[2]; oral gavage, 14 days", "result": "significant differences compared with the model group"}, {"measurement": "Pulmonary fibrosis Ashcraft score vs. model group (FIG. 1)", "setting": "[2]; [3]", "result": "significantly improved the degree of pulmonary fibrosis"}]}
{"compound": "O=S(=O)(c1cccc2cncc(Cl)c12)N1CC2CCNC2C12CC2", "note": "(stereo not shown) [embodiment 2]", "values": [{"measurement": "IC50", "setting": "ROCK protein kinase", "result": 32, "unit": "nM"}]}
{"compound": "CC1C2NCCC2CN1S(=O)(=O)c1cccc2cnccc12", "note": "(stereo not shown) [embodiment 7-2]", "values": [{"measurement": "IC50", "setting": "ROCK protein kinase", "result": 15, "unit": "nM"}]}
{"compound": "Cc1cncc2cccc(S(=O)(=O)N3CC4CCNC4C3C)c12", "note": "(stereo not shown) [embodiment 8]", "values": [{"measurement": "IC50", "setting": "ROCK protein kinase", "result": 18, "unit": "nM"}]}
{"compound": "O=S(=O)(c1cccc2cnccc12)N1CC2CCNC2C12CC2", "note": "(stereo not shown) [embodiment 1]", "values": [{"measurement": "IC50", "setting": "ROCK protein kinase", "result": 20, "unit": "nM"}]}
